Source: US8034797B2, “Triazene compounds for the treatment of cancer” (Trin Therapeutics GmbH, priority 2007, dated 2011)
Read-outs that look alike come from different tables or passages of the source.

Legend:
HNXF 536 = test: Xenograft tumour panel, HNXF 536 (head & neck); format: in vivo, nude mice; settings: 450-540 mg/kg ip twice weekly, 28 d
Experimental: (§1) Breast tumours (MAXF 401) were implanted subcutaneously into the rear members of the mice aged 10 weeks. The increase in the volume of the individual tumours was measured using microcallipers, and the size of the tumour was calculated according to the formula a*b^2/2 (where a is the largest diameter of the tumour and b is the vertical axis). When the tumour volume had increased to 80-120 mm^3, the animals were allocated at random into test groups of in each case 6 animals.
(§2) To this end, xenografts of human tumours derived from prostate, uterine, lung, pancreatic, bladder and “head and neck” cancers were implanted in nude mice. The implantation and the determination of tumour volumes were carried out as described hereinbefore. Groups of 5 to 8 animals were used. The test substance was administered by ip injection twice weekly in the mentioned doses in the form of the sodium salt as an aqueous solution.
(§3) The tumour xenografts used, the doses used, the duration of the therapy and a classification of observed anti-tumour actions are summarised in Table 2 below.

Tumour-carrying mice = test: Nephrological tolerability (kidney post-mortem and histology); format: in vivo
Experimental: A control group was treated only with the carrier according to a twice weekly treatment scheme.
When the 28-day treatment period had ended, a post-mortem was carried out on the mice. […] The kidneys of all the animals in the test groups were removed by operation, fixed in formalin according to standard methods, embedded in paraffin and processed for HE staining.

Solubility in water = format: physicochemical; settings: water, 25 °C, water
MAXF 401 = MAXF 401 breast tumour xenograft in nude mice; format: in vivo
Experimental: All the tests were carried out using female nude mice under standard conditions for the keeping of animals with controlled illumination and temperature. The animals were given water and food as desired.
The increase in the volume of the individual tumours was measured using microcallipers, and the size of the tumour was calculated according to the formula a*b^2/2 (where a is the largest diameter of the tumour and b is the vertical axis). When the tumour volume had increased to 80-120 mm^3, the animals were allocated at random into test groups of in each case 6 animals.
The test compounds (in the form of sodium salts) were dissolved in a saline solution, and 5% Klucel (hydroxypropylcellulose) was added in order to dissolve all the test compounds in the same carrier. […] A volume of 10 ml/kg body weight was injected. Animals that received only the carrier served as control. The test compounds were treated according to the scheme of twice weekly administration over a period of […]. The tumour volume and the body weight were checked twice weekly, and the relative tumour volumes were calculated as the ratio of tumour size to body weight.
On the basis of the relative tumour volumes of the animals treated with the test compounds compared with the tumour volumes of the controls treated only with the carrier, the T/C values were calculated and were used as the index of anti-tumour activity.
Subcutaneous implantation of the tumour and the determination of the tumour volume were carried out as described hereinbefore. The above-mentioned salts of the test substance were administered by ip injection twice weekly in the mentioned doses in the form of an aqueous solution, over a period of 4 weeks. […]
Subcutaneous implantation of the tumour and the determination of tumour volumes were carried out as described hereinbefore. The test substance was administered by ip injection twice weekly in the mentioned doses in the form of the sodium salt as an aqueous solution, over a period of 4 weeks.

LXFL 529 = test: Xenograft tumour panel, LXFL 529 (lung); format: in vivo, nude mice; settings: 450-540 mg/kg ip twice weekly, 10 d (control ended early)
Experimental: as §1, §2, §3

PRXF DU145 = test: Xenograft tumour panel, PRXF DU145 (prostate); format: in vivo, nude mice; settings: 385-590 mg/kg ip twice weekly, 28 d
Experimental: as §1, §2, §3

BXF 1218 = test: Xenograft tumour panel, BXF 1218 (bladder); format: in vivo, nude mice; settings: 450-540 mg/kg ip twice weekly, 7 d (control ended early); n.s.
Experimental: as §1, §2, §3

PRXF 22RV1 = test: Xenograft tumour panel, PRXF 22RV1 (prostate); format: in vivo, nude mice; settings: 450-540 mg/kg ip twice weekly, 28 d
Experimental: as §1, §2, §3

MEXF 462 = MEXF 462 melanoma xenograft model; format: in vivo, nude mice; settings: for tumour volume in % of the tumour volume at the beginning of the test, Mean: 300 mg/kg ip twice weekly
Experimental: Breast tumours (MAXF 401) were implanted subcutaneously into the rear members of the mice aged 10 weeks. The increase in the volume of the individual tumours was measured using microcallipers, and the size of the tumour was calculated according to the formula a*b^2/2 (where a is the largest diameter of the tumour and b is the vertical axis). When the tumour volume had increased to 80-120 mm^3, the animals were allocated at random into test groups of in each case 6 animals. […]
The anti-tumour activity of the compounds was determined in the MEXF 462 xenograft tumour model in the nude mouse. Subcutaneous implantation of the tumour and the determination of tumour volumes were carried out as described hereinbefore. Groups of in each case 8 animals were used.
Equimolar amounts of the compound of Example 8 were administered ip twice weekly in the form of a 5% DMSO solution over the mentioned period.
The progression over time of the anti-tumour action, expressed in % of the tumour volume at the beginning of the test, over the period of therapy is shown in Table 3.

CXF 280 = CXF 280 colon carcinoma xenograft model; format: in vivo, nude mice
Experimental: as §1, §2, §3
Subcutaneous implantation of the tumour and the determination of tumour volumes were carried out as described hereinbefore. The test substance was administered by ip injection twice weekly in the mentioned doses in the form of the sodium salt as an aqueous solution, over a period of 4 weeks. Groups of in each case 8 animals were used.

UXF 1138 = test: Xenograft tumour panel, UXF 1138 (uterus); format: in vivo, nude mice; settings: 450-540 mg/kg ip twice weekly, 21 d (control ended early)
Experimental: as §1, §2, §3

PAXF 1657 = test: Xenograft tumour panel, PAXF 1657 (pancreas); format: in vivo, nude mice; settings: 450-540 mg/kg ip twice weekly, 21 d (control ended early); n.s.
Experimental: as §1, §2, §3

MEXF 276 = test: Xenograft tumour panel, MEXF 276 (melanoma); format: in vivo, nude mice; settings: 450-540 mg/kg ip twice weekly, 21 d (control ended early)
[1] = kidney histology after 28-day twice weekly ip treatment, equimolar to 450 mg of stock composition, affected/animals
[2] = dose range used (450-540 mg/kg)
[3] = extrapolated, ip twice weekly over 4 weeks

## CN(C)/N=N/c1ccc(C(=O)c2ccc(OCCC(=O)NCC(=O)[O-])cc2)cc1.[Na+] [Example 2a]
HNXF 536
  Max. effect (Inhibition): Inhibition <50% **
Tumour-carrying mice; after 28-day treatment period
  macroscopic findings of the kidneys at post-mortem: without pathological findings
Tumour-carrying mice; [1]
  Acute single-cell necrosis: 0/9
  Focal tubular necrosis: 0/9
Solubility in water; 25° C., read-out: solubility in water at 25° C.
  solubility: 500 mg/mL
Solubility in water; room temperature (25° C.), read-out: water solubility at room temperature (25° C.)
  solubility: 500 mg/mL
MAXF 401; 300-540 mg/kg ip twice weekly, 28 d, ***
  Max. effect: Remission ***
MAXF 401; Mus musculus, MAXF401, 672 h, ip twice weekly over 4 weeks, read-out: ED50 of the anti-tumour action
  ED50: 450 mg/kg
MAXF 401; highest dose, ip twice weekly over 4 weeks
  effect at the highest dose: remission of the tumours
MAXF 401; ip twice weekly over 4 weeks
  ED90 of the anti-tumour action: 500 mg/kg
  threshold dose of the anti-tumour action: 300 mg/kg
LXFL 529
  Max. effect (Inhibition): Inhibition <50% *
PRXF DU145
  Max. effect (Inhibition): Inhibition >50% **
BXF 1218
  Max. effect (Inhibition): Inhibition <50% n.s.
PRXF 22RV1
  Max. effect (Inhibition): Inhibition <50% **
MEXF 462; 100-540 mg/kg ip twice weekly, 28 d, ***
  Max. effect: Remission ***
MEXF 462; day 0
  tumour volume in % of the tumour volume at the beginning of the test, Mean: 100%
MEXF 462; day 3
  tumour volume in % of the tumour volume at the beginning of the test, Mean: 316%
MEXF 462; day 7
  tumour volume in % of the tumour volume at the beginning of the test, Mean: 240%
MEXF 462; day 11
  tumour volume in % of the tumour volume at the beginning of the test, Mean: 187%
MEXF 462; day 14
  tumour volume in % of the tumour volume at the beginning of the test, Mean: 166%
MEXF 462; day 18
  tumour volume in % of the tumour volume at the beginning of the test, Mean: 83%
MEXF 462; day 21
  tumour volume in % of the tumour volume at the beginning of the test, Mean: 67%
MEXF 462; day 25
  tumour volume in % of the tumour volume at the beginning of the test, Mean: 40%
MEXF 462; day 28
  tumour volume in % of the tumour volume at the beginning of the test, Mean: 30%
MEXF 462; equimolar doses ip twice weekly over 4 weeks
  outcome of treatment: partial remission
CXF 280; 450, 500 or 540 mg/kg ip twice weekly over 4 weeks, all doses
  anti-tumour action: pronounced anti-tumour action
CXF 280; 450-540 mg/kg ip twice weekly, 28 d, ***
  Max. effect: Remission ***
CXF 280; Mus musculus, 672 h, extrapolated, ip twice weekly over 4 weeks
  ED50: 390 mg/kg
CXF 280; [2]
  tolerability: well tolerated
  weight loss in the animals: not associated with a significant weight loss
CXF 280; [3]
  ED20: 330 mg/kg
  ED90: 490 mg/kg
UXF 1138
  Max. effect (Inhibition): Inhibition >50% **
PAXF 1657
  Max. effect: No anti-tumour
MEXF 276
  Max. effect (Inhibition): Inhibition >50% ***
